Measurements from patent US7524956B2, “Hemisynthetic method and new compounds” (Pharma Mar, S.A., priority 1999, dated 2009).

Columns and labels:
Type in all cases: cell-based
[1] = system: A-549 (monolayer culture of a human lung carcinoma); assay: Cytotoxic activity screening, A-549 cells; details: A549, 72 h, three days of incubation, Crystal Violet, approximate IC50
Description: (§1) Cell Cultures. Cells were maintained in logarithmic phase of growth in Eagle's Minimum Essential Medium, with Earle's Balanced Salts, with 2.0 mM L-glutamine, with non-essential amino acids, without sodium bicarbonate (EMEM/neaa); supplemented with 10% Fetal Calf Serum (FCS), 10^−2 M sodium bicarbonate and 0.1 g/l penicillin-G+streptomycin sulfate.
(§2) A simple screening procedure has been carried out to determine and compare the antitumour activity of these compounds, using an adapted form of the method described by Bergeron et al (1984). The tumour cell line employed have been P-388 (suspension culture of a lymphoid neoplasm from DBA/2 mouse), A-549 (monolayer culture of a human lung carcinoma), HT-29 (monolayer culture of a human colon carcinoma) and MEL-28 (monolayer culture of a human melanoma).
(§3) A-549, HT-29 and MEL-28 were seeded into 16 mm wells at 2×10^4 cells per well in 1 ml aliquots of MEM 10FCS containing the indicated concentration of drug. A separate set of cultures without drug was seeded as control growth to ensure that cells remained in exponential phase of growth. All determinations were carried out in duplicate. After three days of incubation at 37° C., 10% CO2 in a 98% humid atmosphere, the wells were stained with 0.1% Crystal Violet. An approximately IC50 was determined by comparing the growth in wells with drug to the growth in wells control.

[2] = system: MEL-28 (monolayer culture of a human melanoma); assay: Cytotoxic activity screening, MEL-28 cells; details: SK-MEL-28, 72 h, three days of incubation, Crystal Violet, approximate IC50
Description: as §1, §2, §3

[3] = system: DU-145; assay: Cytotoxic activity screening, DU-145 cells; details: Homo sapiens, DU-145, DU-145 cells
[4] = system: P-388 (suspension culture of a lymphoid neoplasm from DBA/2 mouse); assay: Cytotoxic activity screening, P-388 cells; details: P388, 72 h, three days of incubation, approximate IC50
Description: as §1, §2
P-388 cell were seeded into 16 mm wells at 1×10^4 cells per well in 1 ml aliquots of MEM 5FCS containing the indicated concentration of drug. A separate set of cultures without drug was seeded as control growth to ensure that cells remained in exponential phase of growth. All determinations were carried out in duplicate.

[5] = system: HT-29 (monolayer culture of a human colon carcinoma); assay: Cytotoxic activity screening, HT-29 cells; details: HT-29, 72 h, three days of incubation, Crystal Violet, approximate IC50
Description: as §1, §2, §3

CCCCCCCCCC(=O)NC[C@H]1c2c(c(OC(C)=O)c(C)c3c2OCO3)CC2[C@H]3c4c(cc(C)c(OC)c4O)C[C@@H]([C@H](C#N)N21)N3C (stereo partly drawn)
IC50 [1]: 0.007 µM | IC50 [2]: 0.007 µM | IC50 [3]: 0.007 µM | IC50 [4]: 0.007 µM | IC50 [5]: 0.007 µM

CCCC(=O)N[C@@H](C)C(=O)NC[C@H]1c2c(c(OC(C)=O)c(C)c3c2OCO3)CC2[C@H]3c4c(cc(C)c(OC)c4O)C[C@@H]([C@H](C#N)N21)N3C (stereo partly drawn)
IC50 [1]: 0.001 µM | IC50 [2]: 0.0005 µM | IC50 [3]: 0.001 µM | IC50 [4]: 0.001 µM | IC50 [5]: 0.0005 µM

COc1c(C)cc2c(c1O)[C@@H]1C3Cc4c(OC(C)=O)c(C)c5c(c4[C@H](CNC(=O)/C=C/c4ccccc4)N3[C@@H](C#N)[C@H](C2)N1C)OCO5 (stereo partly drawn)
IC50 [1]: 0.0001 µM | IC50 [2]: 0.0001 µM | IC50 [3]: 0.0001 µM | IC50 [4]: 0.0001 µM | IC50 [5]: 0.0001 µM
